One may read the LD50 as the dose expected to kill half of the subjects tested. Lower therefore signals greater toxicity. A word on the melting point: it is the temperature of the solid-liquid transition.

Results on twelve compounds are retold here after patent USRE44873E1, “Imidazole-5-carboxylic acid derivatives, the preparation method therefor and the uses thereof” (Salubris Asset Management Co., Ltd., priority 2006, dated 2014).

Data set [1] concerns spontaneously hypertensive rat (SHR). The experiment in a line: Effect of lowering blood pressure in spontaneously hypertensive rats (administration through stomach fistula). It counts as in vivo. Conditions: female SHR, 30 mg/kg through stomach fistula, recorded in 6 hours after administration; for Systolic blood pressure post-administration: first figure of pair; for Diastolic blood pressure post-administration: second figure of pair. As to the method: A female spontaneously hypertensive rat (SHR) is anaesthetize by abdominal cavity injection with diazepam of 5 mg/kg and ketamine hydrochloride of 50 mg/kg and its back is fixed. An artery conduit is inserted from the left of a femoral artery to a lower abdominal aorta, and then a stomach fistula treatment is operated. After 20-30 hours for postoperative recovery, the artery conduit is connected to a pressure transducer by a perfusion three-way tube. Blood pressure signals per pulse are transformed into biologic signals by the pressure transducer, and systolic blood pressures and diastolic blood pressures per pulse are real-time recorded by a computer. After the SHR is connected to the computer system for 4-5 hours, blood pressures and palpitation intervals in one hour are recorded as normal comparing data before administration. Afterwards, the medicine with a dosage of 30 mg/kg and a volume of 2 ml/kg is administrated through the stomach fistula. Blood pressures in 6 hours after administration are continuously recorded to observe change of systolic blood pressure and diastolic blood pressure.
A female spontaneously hypertensive rat (SHR) is anaesthetize by abdominal cavity injection with diazepam of 5 mg/kg and ketamine hydrochloride of 50 mg/kg and its back is fixed. An artery conduit is inserted from the left of a femoral artery to a lower abdominal aorta, and than a stomach fistula treatment is operated. After 20-30 hours for postoperative recovery, the artery conduit is connected to it pressure transducer by a perfusion three-way tube. Blood pressure signals per pulse are transformed into biologic signals by pressure transducer, and systolic blood pressures and diastolic blood pressures per pulse are real-time recorded by a computer. When the SHR is connected to the computer system for 4-5 hours, blood pressures and palpitation intervals in one hour are recorded as normal comparing data before administration. Afterwards, it is adminstrated with a dosage of 30 mg/kg and a volume of 2 ml/kg through the stomach fistula. Blood pressures in 6 hours after administration are continuously recorded to observe changes of systolic blood pressure and diastolic blood pressure.

The next data set in a line: in vivo. To be noted: both, Kunming, mouse, po.
Another data set has as its system Kunming mice. Description: Evaluation of toxicity (acute LD50, intragastric). To be noted: one intragastric administration, 14 days observation, 0.5% CMC-Na.
Data set [2] can be described thus: Efficiency of active metabolism conversion (EXP3174 in blood plasma by HPLC after oral dosing). Conditions: SD rats, 20 mg/kg oral intragastric infusion, blood at 3 hours. It counts as in vivo. As to the method: The SD rats are orally administrated by intragastric infusion with a dosage of 20 mg/kg. Blood samples are collected from an orbit at the time of 3 hours since the administration. The blood samples freely drop into centrifuge tubes. The sampling amount of blood is 0.3˜0.5 ml, and the blood plasma is centrifugalized. After the sample is pre-treated, the blood is analyzed by using HPLC method to get the amount of EXP3174 in the blood plasma. Based on the molar ratio of the amount of EXP3174 and the amount of administration dosage, a ratio of the experiment compounds being converted into active metabolite in vivo may be calculated.

For data set [3] the following is noted: cited from earlier work.
The conditions of data set [4]: relative to EXP3174; cited from earlier work.

Protocol for Kunming mice: (§1) 20 Kunming mice with weight of 18-22 g are randomly divided into two groups, each group including 10 ones with two identical halves for male and female. The mice are fasted for 6 hours, and then the two groups of mice are administrated by intragastric infusion with the compounds of the present invention in the amount of 10 g/kg, 5 g/kg, 2 g/kg. The administration volume is 0.8 ml/20 g, and the solvent is 0.5% CMC-Na. Observe and accumulate the number of dead animals during 14 days after administration (one administration) to calculate LD50.
Protocol for in vivo: as §1

For the compound `CCCCc1nc(Cl)c(C(=O)OCOC(=O)OC(C)(C)C)n1Cc1ccc(-c2ccccc2-c2nnn[nH]2)cc1` [Compound 10, 2-butyl-4-chloro-1-[2′-(1H-tetrazol-5-yl)1,1′-biphenyl-methyl]imidazole-5-carboxylic acid, 1-[(tert-butoxycarbonyl)oxy]methyl ester], in data set [1], the “Systolic blood pressure post-administration” value was found to be 158 mmHg and the “Diastolic blood pressure post-administration” value is listed as 103 mmHg. Also, the LD50 at 14 days in “in vivo” was over 10000 mg/kg.
As for `CCCCc1nc(Cl)c(C(=O)OC(C)OC(=O)OC2CCCCC2)n1Cc1ccc(-c2ccccc2-c2nnn[nH]2)cc1` (racemic) [Compound 7, (+/−)2-butyl-4-chloro-1-[2′-(1H-tetrazol-5-yl)1,1′-biphenyl-methyl]imidazole-5-carboxylic acid, 1-[(cyclohexyloxycarbonyl)oxy]ethyl ester], in data set [1], the “Systolic blood pressure post-administration” value is reported as 157 mmHg and the “Diastolic blood pressure post-administration” value was found to be 103 mmHg.
On to `CCCCc1nc(Cl)c(C(=O)OC(C)OC(=O)OC(C)C)n1Cc1ccc(-c2ccccc2-c2nnn[nH]2)cc1` (stereo not drawn) [Compound 5, 2-butyl-4-chloro-1-[2′-(1H-tetrazol-5-yl)1,1′-biphenyl-methyl]imidazole-5-carboxylic acid, 1-[(isopropoxycarbonyl)oxy]ethyl ester], for which, in data set [1], the “Systolic blood pressure post-administration” value was 157 mmHg and the “Diastolic blood pressure post-administration” value came out at 101 mmHg.
In the data set on Kunming mice, `CCCCc1nc(Cl)c(C(=O)OC(C)OC(=O)OCC)n1Cc1ccc(-c2ccccc2-c2nn[nH]n2)cc1` (stereo not drawn) [HN-65021] had an LD50 of 5000 to 8000 mg/kg. The “metabolism conversion ratio (molar ratio of EXP3174 in blood plasma to administered dosage)” value in data set [2] is listed as 1.5%.
On to `CCCCc1nc(Cl)c(C(=O)OC(C)OC(=O)OC(C)(C)C)n1Cc1ccc(-c2ccccc2-c2nnn[nH]2)cc1` (stereo not drawn) [Compound 6, 2-butyl-4-chloro-1-[2′-(1H-tetrazol-5-yl)1,1′-biphenyl-methyl]imidazole-5-carboxylic acid, 1-[(tert-butoxycarbonyl)oxy]ethyl ester], for which the melting point is 60.5 to 62 °C. In data set [1], the “Systolic blood pressure post-administration” value turned out to be 159 mmHg and the “Diastolic blood pressure post-administration” value was 103 mmHg.
Regarding `CCCCc1nc(Cl)c(C(=O)OC2OC(=O)c3ccccc32)n1Cc1ccc(-c2ccccc2-c2nnn[nH]2)cc1` (racemic) [Compound 2, (+/−)2-butyl-4-chloro-1-[2′-(1H-tetrazol-5-yl)1,1′-biphenyl-methyl]imidazole-5-carboxylic acid, 2-[C]-benzofuranonyl ester], the melting point lay within 120.6 to 124.6 °C. In data set [1], the “Systolic blood pressure post-administration” value is 155 mmHg and the “Diastolic blood pressure post-administration” value is recorded as 105 mmHg.
In the case of `CCCCc1nc(Cl)c(C(=O)OCOC(=O)OC(C)C)n1Cc1ccc(-c2ccccc2-c2nnn[nH]2)cc1` [Compound 8, 2-butyl-4-chloro-1-[2′-(1H-tetrazol-5-yl)1,1′-biphenyl-methyl]imidazole-5-carboxylic acid, 1-[(isopropoxycarbonyl)oxy]methyl ester], in data set [1], the “Systolic blood pressure post-administration” value was 156 mmHg and the “Diastolic blood pressure post-administration” value was found to be 101 mmHg. In addition, the LD50 at 14 days in the data set “in vivo” was over 10000 mg/kg.
On to `CCCCc1nc(Cl)c(C(=O)OCc2oc(=O)oc2C)n1Cc1ccc(-c2ccccc2-c2nnn[nH]2)cc1` [Compound 3, 2-butyl-4-chloro-1-[2′-(1H-tetrazol-5-yl)1,1′-biphenyl-methyl]imidazole-5-carboxylic acid, cyclic 2,3-carbonate], for which, in data set [1], the “Systolic blood pressure post-administration” value came out at 158 mmHg and the “Diastolic blood pressure post-administration” value worked out at 102 mmHg.
As to `CCCCc1nc(Cl)c(C(=O)OCC)n1Cc1ccc(-c2ccccc2-c2nnn[nH]2)cc1` [Compound 1, 2-butyl-4-chloro-1-[2′-(1H-tetrazol-5-yl)1,1′-biphenyl-methyl]imidazole-5-carboxylic acid, ethyl ester], in data set [1], the “Systolic blood pressure post-administration” value worked out at 159 mmHg and the “Diastolic blood pressure post-administration” value is 103 mmHg.
`CCCCc1nc(Cl)c(CO)n1Cc1ccc(-c2ccccc2-c2nn[nH]n2)cc1` [losartan potassium] had an LD50 at 14 days in “in vivo” of 2000 mg/kg. Also, in data set [3], the “Share of losartan potassium metabolized in vivo to its active substance EXP3174” value is recorded as 14%. The “Activity in reducing blood pressure as share of that of EXP3174” value in data set [4] is recorded as 3%.
Turning to `CCCCc1nc(Cl)c(C(=O)OCOC(=O)C(C)(C)C)n1Cc1ccc(-c2ccccc2-c2nnn[nH]2)cc1` [Compound 4, 2-butyl-4-chloro-1-[2′-(1H-tetrazol-5-yl)1,1′-biphenyl-methyl]imidazole-5-carboxylic acid, pivaloyloxymethyl ester], in data set [1], the “Systolic blood pressure post-administration” value worked out at 159 mmHg and the “Diastolic blood pressure post-administration” value is recorded as 102 mmHg.
For `CCCCc1nc(Cl)c(C(=O)OCOC(=O)OCC)n1Cc1ccc(-c2ccccc2-c2nnn[nH]2)cc1` [Compound 9, 2-butyl-4-chloro-1-[2′-(1H-tetrazol-5-yl)1,1′-biphenyl-methyl]imidazole-5-carboxylic acid, 1-[(ethoxycarbonyl)oxy]methyl ester], in data set [1], the “Systolic blood pressure post-administration” value amounted to 159 mmHg and the “Diastolic blood pressure post-administration” value was found to be 104 mmHg. In “in vivo”, this compound came in with an LD50 at 14 days of over 10000 mg/kg.
